Measurements: patent US7511173B2, “Creatine salt with enhanced nutritional and therapeutic efficacy and compositions containing same” (Iovate T & P Inc., priority 2004, dated 2009)

Experiments:
Type in all cases: physicochemical
pH of aqueous solution = conditions: c = 1% in water
hygroscopicity = experiment: hygroscopicity
[1] = stability in aqueous solution (titer, degradation into creatinine); conditions: solution of about 15 mg/ml (1.5%), after 10 days at room temperature

Row | pH (pH of aqueous solution) | hygroscopicity (hygroscopicity) | Compound | titer drop in aqueous solution [1]
1 | 6; c = 1% in water | non-hygroscopic | CN(CC(=O)O)C(=N)N.NCC(=O)O [creatine glycinate] | –
2 | – | – | citrate | about 50%
